The record followed here is patent US7119102B2, “Substituted 3-amino-thieno[2,3-b]pyridine-2-carboxylic acid amide compounds and processes for preparing and their uses” (Boehringer Ingelheim Pharmaceuticals, Inc., priority 2003, dated 2006).

SMILES strings stand for the structures.

Turning to `NC(=O)c1sc2nc(N3CCC(NC[C@@H](O)c4ccccn4)CC3)cc(C(F)(F)F)c2c1N` [Example 22, 3-Amino-6-[4-((R)-2-hydroxy-2-pyridin-2-yl-ethylamino)-piperidin-1-yl]-4-trifluoromethyl-thieno[2,3-b]pyridine-2-carboxylic acid amide], the melting point (commonly the temperature of the solid-liquid transition) was 165 to 167 °C. With `NC(=O)c1sc2nc(N3CCC(NCC(O)c4cccnc4)CC3)cc(C(F)(F)F)c2c1N` (centres unmarked) [Example 9, 3-Amino-6-[4-(2-hydroxy-2-pyridin-3-yl-ethylamino)-piperidin-1-yl]-4-trifluoromethyl-thieno[2,3-b]pyridine-2-carboxylic acid amide] the figure was 179 to 181 °C. In turn, `CCCc1cc(N2CCC(NCC(O)c3cnc4ccccc4c3)CC2)nc2sc(C(N)=O)c(N)c12` (centres unmarked) [Example 8, 3-Amino-6-[4-(2-hydroxy-2-quinolin-3-yl-ethylamino)-piperidin-1-yl]-4-propyl-thieno[2,3-b]pyridine-2-carboxylic acid amide] showed a melting point of 213 to 216 °C. With `CCCc1cc(N2CCC(NCC(O)c3cc4ccccc4cn3)CC2)nc2sc(C(N)=O)c(N)c12` (centres unmarked) [Example 11, 3-Amino-6-[4-(2-hydroxy-2-isoquinolin-3-yl-ethylamino)-piperidin-1-yl]-4-propyl-thieno[2,3-b]pyridine-2-carboxylic acid amide] the figure was 213 to 215 °C (dec.); with `NC(=O)c1sc2nc(N3CCC(NCC(O)c4ccc5ccccc5n4)CC3)cc(C(F)(F)F)c2c1N` (centres unmarked) [Example 10, 3-Amino-6-[4-(2-hydroxy-2-quinolin-2-yl-ethylamino)-piperidin-1-yl]-4-trifluoromethyl-thieno[2,3-b]pyridine-2-carboxylic acid amide], 198 to 201 °C.
